{"source": "patent US20210137958A1", "about": "“PHARMACEUTICAL COMPOSITIONS OF DECITABINE” (SHILPA MEDICARE LIMITED, priority 2018, published 2021)", "key": {"[1]": {"assay_type": "physicochemical", "from_the_text": "a) Impurity 1 is formed in acidic and basic conditions. Impurity 1 is chemically 5-Azacytosine or 4-amino-1, 3, 5-triazin-2(1H)-one and represented by following structure.\nb) Impurity 2 is an oxidation impurity formed by peroxide stress and is chemically (4-amino-1-(tetrahydro-4-hydroxy-5-(Hydroxymethyl)furan-2-yl)-1,3,5-triazin-2(1H)-one or alpha isomer and represented by following structure\nc) Impurity 3 is an oxidation impurity formed by peroxide stress. Impurity 3 is chemically represented as (2-Deoxy-ribufuranosyl-3-guanylurea) or deformyl impurity and represented by following structure\nd) NFDU impurity is a transition impurity and increases on oxidation by peroxide stress chemically represented as N-(formylamidino) N′-β-D-2′-deoxyribofuranosylurea and structurally represented as […]"}, "[2]": {"conditions": "reconstituted and diluted Dacogen solution; cited from earlier work"}}, "data": [{"compound": "Nc1ncn([C@H]2C[C@H](O)[C@@H](CO)O2)c(=O)n1", "note": "[decitabine, 4-amino-1-(2-deoxy-β-D-erythro-pentofuranosyl)-1,3,5-triazin-2(1H)-one]", "values": [{"measurement": "Impurities obtained on forced degradation", "setting": "[1]", "result": "four known impurities namely Impurity-1, Impurity-2, Impurity-3 and NFDU are obtained"}, {"measurement": "Stability in aqueous media", "setting": "[2]", "result": "highly unstable"}]}]}
